Data reported in PMC4364779, “IMD-4690, a Novel Specific Inhibitor for Plasminogen Activator Inhibitor-1, Reduces Allergic Airway Remodeling in a Mouse Model of Chronic Asthma via Regulating Angiogenesis and Remodeling-Related Mediators” (PLoS ONE, 2015).

Tests used:
[1] = test system: chronic allergen exposure model of bronchial asthma in mice; experiment: Lung resistance (RL) by restrained whole body plethysmography, chronic Dp asthma model; format: in vivo, mouse; details: at 25 and 50 mg/mL of Mch, day 70, 10 mg/kg i.p., vs Dp/CMC mice
Experimental: (§1) All mice were sensitized on days 0 and 7 by intraperitoneal injections of 10 μg of Dp dissolved in 500 μL saline and mixed with 1mg of Alum (Sigma-Aldrich Japan). Dp-sensitized mice were challenged intranasally with 10 μg (10 μL) Dp in 70 μL saline on alternate days, 3 days per week, from days 14 to 67. The mice were also treated intraperitoneally with IMD-4690 (10 mg/kg) (Dp/IMD group) or CMC alone (Dp/CMC group) at the same day with Dp challenge. As a control, mice were challenged with saline and given CMC during this period (control/CMC group) (Fig. 1A). Each experiment was performed using six mice per group.
Seventy-two hours after the final challenge (day 70), lung resistance (RL) was measured by restrained whole body plethysmography (Buxco Electronics). Mice were anesthetized by 6 mg/mL 2,2,2-tribromoethanol with 2-methyl-2-butanol. Then mice were tracheostomized and cannulated with a 19-gauge tracheostomy tube, and were placed in the chamber for plethysmography and mechanically ventilated. Aerosolized β-methacholine (Mch) was administered by an in-line aerosol delivery system at different concentrations (6.25, 12.5, 25, and 50 mg/mL). After each Mch challenge, data were continuously collected, and values of RL were taken to express the changes in these functional parameters. The data were expressed as the percentage change from baseline RL obtained after inhalation of saline.

[2] = Body weight and adverse effects in Dp-sensitized mice; format: in vivo, mouse; details: 10 mg/kg i.p.
Source text: Six-week-old female BALB/c mice (15–20 g) were purchased from CLEA Japan Inc. (Tokyo, Japan). Mice were maintained in the animal facility of the University of Tokushima according to the guidelines of the ethics committee of our university. The present study was approved by Institutional Animal Care and Use Committee of the University of Tokushima (Permission Number: 11134). Mice were housed under specific pathogen-free conditions with 12-h light/dark cycle in a temperature-controlled room with free access to food and water. Mice were monitored weekly for body weight and daily for food and water intake and assessed visually for signs of clinical disease including inactivity, labored respiration and ruffled fur.
as §1

[3] = test system: chronic allergen exposure model of bronchial asthma in mice; experiment: Total lung collagen (Sircol assay), chronic Dp asthma model; format: in vivo, mouse; details: day 70, 10 mg/kg i.p., vs Dp/CMC mice
Experimental: as §1
The left lungs were harvested on day 70 and used for collagen assays. Total lung collagen was determined using a Sircol Collagen Assay kit (Biocolor Ltd, Belfast, Northern Ireland) according to the manufacturer’s instructions.

[4] = test system: chronic allergen exposure model of bronchial asthma in mice; experiment: Mediators in lung homogenates (ELISA/activity kits), chronic Dp exposure asthma model; format: in vivo, mouse
Experimental: as §1
The right lungs were frozen until analyzed. Frozen tissue were solubilized by homogenization in lysis buffer (Cell Signaling Technology, Inc., Danvers, Mass., USA) containing 1 tablet of Complete Protease Inhibitor Cocktail Tablets, EDTA-free (Santa Cruz Biotechnology, Inc., Santa Cruz, CA, USA), per 25 mL of buffer by using an Ultramicro homogenizer set (I.S.O.,Inc., Yokohama, Japan). Samples of the homogenate were centrifuged at 15,000 rpm for 10 min. The supernatants were stored at -80°C.
Protein concentrations were determined by the BCA method (Pierce, Rockford, IL, USA). Cytokines, growth factors, enzymes, and serum IgE were determined using commercial ELISA kits. ELISA kits and their sensitivities were as follows: IL-4, -5, -12, -13, TNF-α, IFN-γ, VEGF, TGF-β, total MMP-9, and TIMP-1 (R&D Systems, Minneapolis, MN, USA), with sensitivities of 2, 7, 2.5, 1.5, 5.1, 2, 3, 1.7, 7, and 1.4 pg/mL, respectively; active and total PAI-1 (Innovative Research Inc., Sarasota, FL, USA) with sensitivities of 20 and 32 pg/mL; active MMP-9 (MMP-9 Biotrak Activity Assay, GE Healthcare, Buckinghamshire, UK) with a sensitivity of 0.5 ng/mL; HGF (Rat HGF determination kit by EIA, Institute of Immunology Co., Ltd., Tokyo, Japan) with a sensitivity of 0.4 ng/mL; and serum IgE (ELISA mouse IgE kit, Seikagaku Biobussiness Corp., Tokyo, Japan) with a sensitivity of 0.5 ng/mL.

human PAI-1 = human PAI-1 (Homo sapiens, UniProt P05121); experiment: Direct tPA assay of PAI-1 activity (fluorescent substrate Pyr-Gly-Arg-MCA); format: biochemical; details: recombinant tPA and PAI-1, read-out: IC50 of human PAI-1 inhibition
Experimental: Inhibitory effect of IMD-4690 on the activity of PAI-1 was measured by the direct tPA assay. Briefly, recombinant tPA and PAI-1 was mixed with IMD-4690, and then tPA substrate with fluorescent pigment (Pyr-Gly-Arg-MCA) was added in this mixture and incubated. The enzymatic activity was calculated by measuring the fluorescence. The inhibitory activity of IMD-4690 on other enzymes was measured with the similar method.

[5] = test system: chronic allergen exposure model of bronchial asthma in mice; experiment: Serum IgE (ELISA), chronic Dp asthma model; format: in vivo, mouse; details: 10 mg/kg i.p., vs Dp/CMC mice
Experimental: as §1
Protein concentrations were determined by the BCA method (Pierce, Rockford, IL, USA). Cytokines, growth factors, enzymes, and serum IgE were determined using commercial ELISA kits. […]

[6] = test system: chronic allergen exposure model of bronchial asthma in mice; experiment: BALF cell classification, chronic Dp asthma model; format: in vivo, mouse; details: 10 mg/kg i.p., vs Dp/CMC mice
Experimental: as §1
After measurement of lung resistance, the mice were euthanized humanely by cutting the axillary artery to obtain serum samples. Following sacrifice, bronchoalveolar lavage was performed twice with saline (0.8 mL) by using a soft cannula. After counting the cell numbers in the BALF using the automated cell viability analyzer Vi-Cell (Beckman Coulter, Calif., USA), BALF samples were cytospun onto glass slides and stained with Diff-Quick (Baxter, Miami, Fla., USA) for classification.

[7] = BALB/c mice, Dp challenge 8 weeks, 10 mg/kg i.p., vs Dp/CMC mice
[8] = Dp/IMD mice (10 mg/kg i.p.) vs Dp/CMC mice
[9] = ELISA, 10 mg/kg i.p., vs Dp/CMC mice

human PAI-1, sequence (P05121 24-402): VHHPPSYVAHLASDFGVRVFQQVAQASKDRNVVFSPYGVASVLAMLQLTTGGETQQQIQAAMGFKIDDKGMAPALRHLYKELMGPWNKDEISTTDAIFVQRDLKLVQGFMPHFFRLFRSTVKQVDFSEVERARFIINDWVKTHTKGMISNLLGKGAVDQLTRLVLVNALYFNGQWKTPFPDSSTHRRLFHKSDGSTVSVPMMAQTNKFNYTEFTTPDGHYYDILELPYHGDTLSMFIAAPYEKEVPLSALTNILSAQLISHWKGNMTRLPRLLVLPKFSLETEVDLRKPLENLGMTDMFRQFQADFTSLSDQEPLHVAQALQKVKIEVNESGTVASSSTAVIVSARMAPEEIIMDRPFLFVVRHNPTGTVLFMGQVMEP

Q: Which “Airway resistance (RL)” value [1] does the source give for `CC(C)(C)c1ccc(Oc2cc(-c3ccc(OC(F)(F)F)cc3)ccc2OCC(=O)O)cc1` [IMD-4690, 2-[[3-(4-tert-Butylphenoxy)-4'-(trifluoromethoxy) [1,1'-biphenyl]-4-yl]oxy] acetic acid] here?
A: Its value is “significantly reduced”.

Q: What about the “Adverse effects in the mouse model” value ([2]; chronic Dp model) of the same compound?
A: The value was “could not find any adverse effects”.

Q: What about the “Changes in body weight” value ([2]; Dp-sensitized mice) of the same compound?
A: Its value is “did not show any weight loss”.

Q: What about the “Total collagen in the lungs” value [3] of the same compound?
A: The value was “reduced”.

Q: And the “IFN-γ production in lung homogenates” value ([4]; 10 mg/kg i.p., vs Dp/CMC mice)?
A: Its value is “inhibited”.

Q: And the “IL-4 level in lung homogenates” value ([4]; 10 mg/kg i.p., vs Dp/CMC mice)?
A: The value was “significantly decreased”.

Q: What about the “IL-5 level in lung homogenates” value ([4]; 10 mg/kg i.p., vs Dp/CMC mice) of the same compound?
A: The value was “significantly decreased”.

Q: What about the “IL-13 level in lung homogenates” value ([4]; 10 mg/kg i.p., vs Dp/CMC mice) of the same compound?
A: The value was “significantly decreased”.

Q: What about the “Ratio of active MMP-9/TIMP-1 in lung homogenates” value ([4]; 10 mg/kg i.p., vs Dp/CMC mice) of the same compound?
A: The value was “significantly restored”.

Q: And the “TNF-α production in lung homogenates” value ([4]; 10 mg/kg i.p., vs Dp/CMC mice)?
A: Its value is “inhibited”.

Q: And the “Level of active PAI-1 in lung homogenates” value [4, 7]?
A: Its value is “significantly reduced”.

Q: And the “Level of total PAI-1 in lung homogenates” value [4, 7]?
A: The value was “significantly reduced”.

Q: And the “HGF levels in lung homogenates” value [4, 8]?
A: The value was “significantly higher”.

Q: And the “Proportion of active PAI-1 as a percentage of the total PAI-1 in lung homogenates” value [4, 8]?
A: The value was “significantly lower”.

Q: And the “Active form of TGF-β1 in lung homogenates” value [4, 9]?
A: The value was “significantly reduced”.

Q: What about the “Total MMP-9 levels in lung homogenates” value [4, 9] of the same compound?
A: The value was “tended to decrease the total MMP-9 levels, although no significant differences were observed”.

Q: And the “VEGF concentration in lung homogenates and BALF” value [4, 9]?
A: Its value is “significantly reduced”.

Q: And the IC50 (human PAI-1)?
A: The IC50 was 1100 nM.

Q: And the “Serum IgE” value [5]?
A: Its value is “significantly decreased”.

Q: What about the “Number of eosinophils in BALF” value [6] of the same compound?
A: Its value is “significantly decreased”.

Q: What about the “Number of lymphocytes in BALF” value [6] of the same compound?
A: Its value is “significantly decreased”.
